Data published in patent publication US8586591B2, “Aminopyrazine derivative and medicine” (Nippon Shinyaku Co., Ltd., priority 2009, dated 2013).
Structures can show the parent of a compound that is named as a salt. Where two headings read alike, the source gives them in different places.

Assays:
JAK2 tyrosine kinase = molecular target: T1, JAK2 tyrosine kinase (Homo sapiens, UniProt O60674); assay: Test 1: inhibitory activity to JAK2 tyrosine kinase (ELISA); assay type: biochemical; settings: 25 μM ATP in substrate solution, 30° C. for 1 hour, n=2
T1 construct: purchased Carnabioscience Co
T1 sequence (O60674 whole entry): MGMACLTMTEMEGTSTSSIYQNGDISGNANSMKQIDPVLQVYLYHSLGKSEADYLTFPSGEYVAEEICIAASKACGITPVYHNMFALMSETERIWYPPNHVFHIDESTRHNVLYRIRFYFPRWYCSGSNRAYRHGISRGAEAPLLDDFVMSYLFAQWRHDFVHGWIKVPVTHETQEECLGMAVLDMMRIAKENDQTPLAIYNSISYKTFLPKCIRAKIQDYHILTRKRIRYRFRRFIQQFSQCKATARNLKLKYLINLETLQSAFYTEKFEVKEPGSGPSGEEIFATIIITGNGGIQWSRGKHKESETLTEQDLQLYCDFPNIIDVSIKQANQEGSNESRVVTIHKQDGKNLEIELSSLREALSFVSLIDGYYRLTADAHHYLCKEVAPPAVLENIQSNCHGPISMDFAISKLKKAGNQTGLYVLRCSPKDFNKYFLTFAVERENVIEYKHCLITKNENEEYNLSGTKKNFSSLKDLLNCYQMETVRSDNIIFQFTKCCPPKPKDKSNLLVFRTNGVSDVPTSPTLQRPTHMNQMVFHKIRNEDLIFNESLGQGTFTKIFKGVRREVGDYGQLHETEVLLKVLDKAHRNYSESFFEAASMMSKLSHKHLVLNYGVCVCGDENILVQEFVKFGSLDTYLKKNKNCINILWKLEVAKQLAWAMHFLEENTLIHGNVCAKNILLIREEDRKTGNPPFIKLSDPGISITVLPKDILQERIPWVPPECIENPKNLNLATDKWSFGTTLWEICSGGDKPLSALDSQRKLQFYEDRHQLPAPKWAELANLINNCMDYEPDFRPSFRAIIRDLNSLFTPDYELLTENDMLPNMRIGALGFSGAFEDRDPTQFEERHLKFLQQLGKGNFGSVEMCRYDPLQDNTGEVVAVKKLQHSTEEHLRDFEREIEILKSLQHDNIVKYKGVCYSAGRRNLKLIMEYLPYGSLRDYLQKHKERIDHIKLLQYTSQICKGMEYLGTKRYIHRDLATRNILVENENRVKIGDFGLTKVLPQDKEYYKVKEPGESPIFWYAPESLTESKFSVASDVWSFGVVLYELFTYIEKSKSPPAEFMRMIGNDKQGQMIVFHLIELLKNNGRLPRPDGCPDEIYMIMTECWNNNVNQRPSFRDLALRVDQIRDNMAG
How it was run: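 This is an ELISA read at A450 (HRP anti-phosphotyrosine antibody, TMB) of biotin-peptide phosphorylation captured on streptavidin. Enzyme solution was 0.75 nM JAK2, and the substrate solution was 625 nM peptide with 25 μM ATP in Tris pH 7.5 buffer. The reaction ran 1 h at 30 °C with compounds in duplicate, and IC50 was fitted non-linearly.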

[1] = molecular target: BaF3 cells into which JAK2 V617F gene was introduced (Homo sapiens, UniProt O60674, V617F, cells depend on it); assay: Test 2: growth inhibitory action against variant JAK2 expressed cells (MTT method); assay type: cell-based; settings: incubation for 3 days, triplicate, read-out: concentration of the test material which inhibited 50% of the cell growth (IC50)
Chain of BaF3 cells into which JAK2 V617F gene was introduced (O60674 whole entry V617F): as the sequence (O60674 whole entry) above, with V617F counted along it
Protocol: Test 2: Growth inhibitory action against variant JAK2 expressed cells
BaF3 cells into which JAK2 V617F gene was introduced ([…]) were inoculated on a 96-well plate in an amount of 1×10^3 cells/well and allowed to stand in a CO2 incubator. Next day, the test material was added to the cells. The test material was serially diluted with DMSO to give 10 mM, 6 mM, 3 mM, 1 mM, 600 μM, 300 μM, 100 μM, 60 μM, 30 μM, or 10 μM solution. This was diluted 100 times with distilled water to give 100 μM, 60 μM, 30 μM, 10 μM, 6 μM, 3 μM, 1 μM, 600 nM, 300 nM, or 100 nM solution. This solution of test material was added to the well in an amount of 10 μl/well. As a negative control, 1% DMSO solution was added to the well in an amount of 10 μl/well. In the above operation, the final concentration of the test material became 10 μM, 6 μM, 3 μM, 1 μM, 600 nM, 300 nM, 100 nM, 60 nM, 30 nM, 10 nM, or 0 nM (0.1% DMSO solution). The addition of the test material solution to each well was made in triplicate.
After continuous incubation for 3 days, the viable count was determined by an MTT method. The MTT method was carried out as follows. First, 10 μl each of solution containing 5 mg/ml of MTT (3-(4,5-dimethylthiazol-2-yl)-2,5-diphenyltetrazolium bromide) was added to each well. The plate was allowed to stand in a CO2 incubator for 4 hours, and then 100 μl of 0.04N HCl/2-propanol solution was added to each well to stop the reaction. The generated MTT-formazan was dissolved well with a multi-channel pipette, and the absorbance at 595 nm was measured with reference to that at 655 nm (Thermo Co.; Multiskan FC). Non-linear regression analysis was made by means of a SAS system (SAS Institute Inc.), and the concentration (IC50) of the test material which inhibited 50% of the cell growth was estimated.

JAK3 tyrosine kinase = molecular target: T2, JAK3 tyrosine kinase (Homo sapiens, UniProt P52333); assay: Test 1: inhibitory activity to JAK3 tyrosine kinase (ELISA); assay type: biochemical; settings: 25 μM ATP in substrate solution, 30° C. for 1 hour, n=2
T2 construct: purchased Carnabioscience Co
T2 sequence (P52333 1-1124): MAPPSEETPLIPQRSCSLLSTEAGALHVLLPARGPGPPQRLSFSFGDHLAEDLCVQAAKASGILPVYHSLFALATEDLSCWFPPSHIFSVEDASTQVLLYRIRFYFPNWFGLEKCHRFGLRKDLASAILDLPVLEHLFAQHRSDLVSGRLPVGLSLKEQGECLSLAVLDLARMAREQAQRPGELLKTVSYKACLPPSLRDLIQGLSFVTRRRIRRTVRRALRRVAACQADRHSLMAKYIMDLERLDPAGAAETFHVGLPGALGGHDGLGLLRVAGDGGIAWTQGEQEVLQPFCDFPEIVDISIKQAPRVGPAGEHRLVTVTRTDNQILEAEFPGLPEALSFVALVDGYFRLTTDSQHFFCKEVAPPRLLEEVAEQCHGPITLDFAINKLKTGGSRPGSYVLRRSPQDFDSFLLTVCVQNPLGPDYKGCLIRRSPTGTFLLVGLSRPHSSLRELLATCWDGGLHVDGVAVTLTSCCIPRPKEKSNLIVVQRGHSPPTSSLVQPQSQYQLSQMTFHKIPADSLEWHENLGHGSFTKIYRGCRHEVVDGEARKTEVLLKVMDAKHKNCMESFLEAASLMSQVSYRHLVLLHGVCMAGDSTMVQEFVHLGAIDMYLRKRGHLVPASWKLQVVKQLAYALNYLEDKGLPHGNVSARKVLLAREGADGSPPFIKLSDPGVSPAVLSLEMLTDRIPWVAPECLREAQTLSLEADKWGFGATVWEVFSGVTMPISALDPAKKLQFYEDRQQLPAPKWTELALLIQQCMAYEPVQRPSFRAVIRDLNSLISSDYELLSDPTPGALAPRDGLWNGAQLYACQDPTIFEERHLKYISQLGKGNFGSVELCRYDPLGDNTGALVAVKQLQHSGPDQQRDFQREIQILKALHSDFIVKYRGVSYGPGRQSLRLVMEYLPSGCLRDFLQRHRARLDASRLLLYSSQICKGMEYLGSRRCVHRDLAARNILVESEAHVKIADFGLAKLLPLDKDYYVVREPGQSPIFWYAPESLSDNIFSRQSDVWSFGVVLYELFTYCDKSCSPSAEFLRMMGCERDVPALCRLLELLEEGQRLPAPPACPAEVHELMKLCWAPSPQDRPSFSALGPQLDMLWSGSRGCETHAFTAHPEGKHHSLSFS
How it was run: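 ELISA of JAK3 kinase activity with absorbance read at 450 nm. Compounds were tested from DMSO dilution series at 100-fold the measurement concentrations (1000–0.01 μM), diluted up to 20 times in assay buffer, against a DMSO negative control. IC50 was estimated by non-linear regression of absorbance.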

Row | SMILES | IC50 (JAK2 tyrosine kinase) [µM] | GI50 [1] [µM] | IC50 (JAK3 tyrosine kinase) [µM] | GI50 ([1]; hydrochloride) [µM]
1 | CCCNC(=O)c1cc(Nc2cnccn2)nc(N[C@@H](C)c2ccc(F)cc2)c1 [Example 166, (S)-2-[1-(4-Fluorophenyl)ethylamino]-N-propyl-6-(pyrazin-2-ylamino)isonicotinamide] | 0.0022 | 0.064 | 0.38 | –
2 | C[C@H](Nc1nc(Nc2cnccn2)cc(N2CC(N3CCCC3)C2)n1)c1ccc(F)cc1 [Example 222, (S)—N^2-[1-(4-Fluorophenyl)ethyl]-N^4-(pyrazin-2-yl)-6-[3-(pyrrolidin-1-yl)azetidin-1-yl]pyrimidine-2,4-diamine] | 0.00075 | 0.066 | 0.018 | –
3 | C[C@H](Nc1nc(Nc2cnccn2)cc(-c2cc[nH]n2)n1)c1ccc(F)cc1 [Example 24, (S)—N^2-[1-(4-Fluorophenyl)ethyl]-N^4-(pyrazin-2-yl)-6-(1H-pyrazol-3-yl)pyrimidine-2,4-diamine hydrochloride] | 0.0011 | – | 0.053 | –
4 | CC(C)C1(O)CN(c2cc(Nc3cnccn3)nc(N[C@@H](C)c3ccc(F)cc3)c2)C1 [Example 204, (S)-1-{2-[1-(4-Fluorophenyl)ethylamino]-6-(pyrazin-2-ylamino)pyridin-4-yl}-3-isopropylazetidin-3-ol hydrochloride] | 0.0081 | – | 0.22 | –
5 | C[C@H](Nc1nc(Nc2cnccn2)cc(-c2ccc(O)nc2)n1)c1ccc(F)cc1 [Example 26, (S)-5-{2-[1-(4-Fluorophenyl)ethylamino]-6-(pyrazin-2-ylamino)pyrimidin-4-yl}pyridin-2-ol] | 0.00027 | – | 0.028 | –
6 | CC(C)C[C@H](CO)Nc1cc(Nc2cnccn2)nc(N[C@@H](C)c2ccc(F)cc2)n1 [Example 88, (R)-2-{2-[(S)-1-(4-Fluorophenyl)ethylamino]-6-(pyrazin-2-ylamino)pyrimidin-4-ylamino}-4-methylpentan-1-ol] | 0.013 | – | 0.2 | –
7 | C[C@H](Nc1nc(NCc2ccncc2)cc(Nc2cnccn2)n1)c1ccc(F)cc1 [Example 108, (S)—N^2-[1-(4-Fluorophenyl)ethyl]-N^4-(pyrazin-2-yl)-N^6-(pyridin-4-ylmethyl)pyrimidine-2,4,6-triamine] | 0.0011 | – | 0.056 | –
8 | COc1ccc(-c2cc(Nc3cnccn3)nc(N[C@@H](C)c3ccc(F)cc3)c2)cn1 [Example 6, (S)—N^2′-[1-(4-Fluorophenyl)ethyl]-6-methoxy-N^6′-(pyrazin-2-yl)-3,4′-bipyridine-2′,6′-diamine] | 0.0057 | – | 0.5 | –
9 | C[C@H](Nc1nc(Nc2cnccn2)cc(-c2ccncc2)n1)c1ccc(F)cc1 [Example 15, (S)—N^2-[1-(4-Fluorophenyl)ethyl]-N^4-(pyrazin-2-yl)-6-(pyridin-4-yl)pyrimidine-2,4-diamine] | 0.0013 | – | 0.072 | –
10 | C[C@H](Nc1nc(Nc2cnccn2)cc(N2CCCC(C(N)=O)C2)n1)c1ccc(F)cc1 (stereo partly drawn) [Example 63, 1-{2-[(S)-1-(4-Fluorophenyl)ethylamino]-6-(pyrazin-2-ylamino)pyrimidin-4-yl}piperidin-3-carboxamide hydrochloride] | 0.001 | – | 0.036 | –

Further compounds by falling IC50 (JAK2 tyrosine kinase), results first:

Row | IC50 (JAK2 tyrosine kinase) [µM] | GI50 [1] [µM] | IC50 (JAK3 tyrosine kinase) [µM] | GI50 ([1]; hydrochloride) [µM] | SMILES
11 | 0.0064 | – | 0.44 | – | CC(=O)c1cc(Nc2cnccn2)nc(N[C@@H](C)c2ccc(F)cc2)c1 [Example 182, (S)-1-{2-[1-(4-Fluorophenyl)ethylamino]-6-(pyrazin-2-ylamino)pyridin-4-yl}ethanone hydrochloride]
12 | 0.0059 | – | 0.39 | – | COc1ncc(-c2cc(Nc3cnccn3)nc(N[C@@H](C)c3ccc(F)cc3)n2)s1 [Example 53, (S)—N^2-[1-(4-Fluorophenyl)ethyl]-6-(2-methoxythiazol-5-yl)-N^4-(pyrazin-2-yl)pyrimidine-2,4-diamine]
13 | 0.0043 | – | 0.14 | – | C[C@H](Nc1nc(NCC(N)=O)cc(Nc2cnccn2)n1)c1ccc(F)cc1 [Example 79, (S)-2-{2-[1-(4-Fluorophenyl)ethylamino]-6-(pyrazin-2-ylamino)pyrimidin-4-ylamino}acetamide hydrochloride]
14 | 0.0038 | – | 0.23 | – | C[C@H](Nc1nc(Nc2cnccn2)cc(-c2cncc(C#N)c2)n1)c1ccc(F)cc1 [Example 74, (S)-5-{2-[1-(4-Fluorophenyl)ethylamino]-6-(pyrazin-2-ylamino)pyrimidin-4-yl}nicotinonitrile]
15 | 0.0023 | – | 0.17 | – | C[C@H](Nc1nc(Nc2cnccn2)cc(-c2cncs2)n1)c1ccc(F)cc1 [Example 49, (S)—N^2-[1-(4-Fluorophenyl)ethyl]-N^4-(pyrazin-2-yl)-6-(thiazol-5-yl)pyrimidine-2,4-diamine]
16 | 0.002 | – | 0.16 | – | C[C@H](Nc1cc(-c2cc[nH]n2)cc(Nc2cnccn2)n1)c1ccc(F)cc1 [Example 29, (S)—N^2-[1-(4-Fluorophenyl)ethyl]-N^6-(pyrazin-2-yl)-4-(1H-pyrazol-3-yl)pyridine-2,6-diamine]
17 | 0.0019 | – | 0.12 | – | C[C@H](Nc1nc(Nc2cnccn2)cc(-c2ccccn2)n1)c1ccc(F)cc1 [Example 14, (S)—N^2-[1-(4-Fluorophenyl)ethyl]-N^4-(pyrazin-2-yl)-6-(pyridin-2-yl)pyrimidine-2,4-diamine]
18 | 0.0017 | – | 0.06 | – | C[C@H](Nc1nc(Nc2cnccn2)cc(N2CCC(N)C2)n1)c1ccc(F)cc1 (stereo partly drawn) [Example 59, 6-(3-Aminopyrrolidin-1-yl)-N^2-[(S)-1-(4-fluorophenyl)ethyl]-N^4-(pyrazin-2-yl)pyrimidine-2,4-diamine]
19 | 0.00098 | 0.064 | 0.024 | – | C[C@H](Nc1nc(Nc2cnccn2)cc(N2CC(N(C)C)C2)n1)c1ccc(F)cc1 [Example 220, (S)-6-[3-(Dimethylamino)azetidin-1-yl]-N^2-[1-(4-fluorophenyl)ethyl]-N^4-(pyrazin-2-yl)pyrimidine-2,4-diamine]
20 | 0.00059 | – | 0.044 | 0.071 | C[C@H](Nc1cc(-c2cnn(C)c2)cc(Nc2cnccn2)n1)c1ccc(F)cc1 [Example 4, (S)—N^2-[1-(4-Fluorophenyl)ethyl]-4-(1-methyl-1H-pyrazol-4-yl)-N^6-(pyrazin-2-yl)pyridine-2,6-diamine hydrochloride]
